From patent publication US12201633B2, “Compounds and methods for treatment of visceral pain” (Arena Pharmaceuticals, Inc., priority 2017, dated 2025)

Tests used:
[1] = molecular target: T1, human CB2 receptor (Homo sapiens, UniProt P34972); assay: HTRF assay for direct cAMP measurement, CB2; assay type: cell-based; design: 93-0164 (CHO-K1 EA-Arrestin parental line); host or cells: CHO-K1 EA-Arrestin, clone #61
[2] = molecular target: hCB1 (Homo sapiens, UniProt P21554); assay: PathHunter β-arrestin assay, CB1
hCB1, sequence (P21554 whole entry): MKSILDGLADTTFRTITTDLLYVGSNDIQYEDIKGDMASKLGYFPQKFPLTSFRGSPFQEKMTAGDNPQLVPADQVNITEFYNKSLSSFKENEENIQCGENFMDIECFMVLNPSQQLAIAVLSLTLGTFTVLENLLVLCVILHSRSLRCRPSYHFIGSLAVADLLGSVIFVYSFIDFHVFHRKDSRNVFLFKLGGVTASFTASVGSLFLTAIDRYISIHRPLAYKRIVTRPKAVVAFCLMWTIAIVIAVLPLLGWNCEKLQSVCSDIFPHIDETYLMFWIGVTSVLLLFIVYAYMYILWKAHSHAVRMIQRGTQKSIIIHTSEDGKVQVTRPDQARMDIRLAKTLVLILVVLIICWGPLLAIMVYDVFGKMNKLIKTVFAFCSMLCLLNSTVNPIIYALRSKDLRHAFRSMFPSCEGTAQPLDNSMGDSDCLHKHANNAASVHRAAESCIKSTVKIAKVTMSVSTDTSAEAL

[3] = molecular target: T1, human CB2 receptor; assay: PathHunter β-arrestin assay, CB2
[4] = system: acute and chronic pain from chemical, mechanical, and thermal pain stimuli; details: animal studies; cited from earlier work
[5] = system: rats following ligation of spinal nerves; details: cited from earlier work

T1 sequence (P34972 whole entry): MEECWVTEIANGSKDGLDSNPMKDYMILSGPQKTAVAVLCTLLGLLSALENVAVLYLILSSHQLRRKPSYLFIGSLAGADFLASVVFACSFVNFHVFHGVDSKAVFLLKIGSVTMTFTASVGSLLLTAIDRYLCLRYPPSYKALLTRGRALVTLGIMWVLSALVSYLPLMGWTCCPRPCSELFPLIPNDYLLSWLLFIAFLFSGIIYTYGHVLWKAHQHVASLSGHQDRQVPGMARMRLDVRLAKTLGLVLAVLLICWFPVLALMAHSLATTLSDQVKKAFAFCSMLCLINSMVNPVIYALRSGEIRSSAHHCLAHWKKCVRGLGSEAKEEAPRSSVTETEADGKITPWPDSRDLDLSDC

Question: With `CC(C)(CO)NC(=O)c1nn(-c2cc(C#N)ccn2)c2c1C[C@H]1C[C@@H]21` [Compound 644, (1aR,5aR)-2-(4-Cyano-pyridin-2-yl)-1a,2,5,5a-tetrahydro-1H-2,3-diaza-cyclopropa[a]pentalene-4-carboxylic acid (2-hydroxy-1,1-dimethyl-ethyl)-amide] as the compound, how does the EC50 [1] read?
Answer: 0.7 nM

Question: And the EC50 [2]?
Answer: 4470 nM

Question: And the EC50 [3]?
Answer: 4.69 nM

Question: With `CCNC(=O)[C@@H](NC(=O)c1nn(-c2c[n+]([O-])ccn2)c2c1C[C@H]1C[C@@H]21)C(C)(C)C` [Compound 728, (1aR,5aR)-2-(4-Oxy-pyrazin-2-yl)-1a,2,5,5a-tetrahydro-1H-2,3-diaza-cyclopropa[a]pentalene-4-carboxylic acid ((S)-1-ethylcarbamoyl-2,2-dimethyl-propyl)-amide] as the compound, how does the EC50 [2] read?
Answer: 251 nM

Question: And the EC50 [3]?
Answer: 1.1 nM

Question: Which “Efficacy against acute and chronic pain” value [4] does the source give for `CCCCC/C=C\C/C=C\C/C=C\C/C=C\CCCC(=O)NCCO` [anandamide] here?
Answer: effective against acute and chronic pain

Question: Which EC50 [2] does the source give for `CC(C)(CF)NC(=O)c1nn(-c2cc(Cl)ccn2)c2c1C[C@@H]1C[C@H]21` [Compound 897, (1aS,5aS)-2-(4-Chloro-pyridin-2-yl)-1a,2,5,5a-tetrahydro-1H-2,3-diaza-cyclopropa[a]pentalene-4-carboxylic acid (2-fluoro-1,1-dimethyl-ethyl)-amide] here?
Answer: 951 nM

Question: And the EC50 [3]?
Answer: 3.79 nM

Question: With `COc1ccc2c(c1)c(CCN1CCOCC1)c(C)n2C(=O)c1cccc(Cl)c1Cl` [GW405833] as the compound, how does the “Hypersensitivity to mechanical stimuli” value ([5]; administered systemically) read?
Answer: significantly reverses hypersensitivity to mechanical stimuli

Question: With `CC(CO)(CO)NC(=O)c1nn(-c2cc(C#N)ccn2)c2c1C[C@H]1C[C@@H]21` [Compound 820, (1aR,5aR)-2-(4-Cyano-pyridin-2-yl)-1a,2,5,5a-tetrahydro-1H-2,3-diaza-cyclopropa[a]pentalene-4-carboxylic acid (2-hydroxy-1-hydroxymethyl-1-methyl-ethyl)-amide] as the compound, how does the EC50 [1] read?
Answer: 2.62 nM

Question: And the EC50 [3]?
Answer: 38.4 nM

Question: For `CCCCCCC(C)(C)c1ccc([C@@H]2C[C@H](O)CC[C@H]2CCCO)c(O)c1` [CP55,940], which “Efficacy against acute and chronic pain” value [4] is on record?
Answer: effective against acute and chronic pain

Question: Which results are given for `O=C(NC1(CF)CCC1)c1nn(-c2c[n+]([O-])ccn2)c2c1C[C@@H]1C[C@H]21` [Compound 924, (1aS,5aS)-2-(4-Oxy-pyrazin-2-yl)-1a,2,5,5a-tetrahydro-1H-2,3-diaza-cyclopropa[a]pentalene-4-carboxylic acid (1-fluoromethyl-cyclobutyl)-amide]?
Answer: EC50 [1]: 0.8 nM; EC50 [3]: 10.5 nM

Question: Which results are given for `O=C(NC(CO)(CF)CF)c1nn(-c2cc(Cl)ccn2)c2c1C[C@@H]1C[C@H]21` [Compound 889, (1aS,5aS)-2-(4-Chloro-pyridin-2-yl)-1a,2,5,5a-tetrahydro-1H-2,3-diaza-cyclopropa[a]pentalene-4-carboxylic acid (2-fluoro-1-fluoromethyl-1-hydroxymethyl-ethyl)-amide]?
Answer: EC50 [2]: 4070 nM; EC50 [3]: 8.6 nM

Question: For `O=C(NC1(C(F)(F)F)CCC1)c1nn(-c2c[n+]([O-])ccn2)c2c1C[C@@H]1C[C@H]21` [Compound 765, (1aS,5aS)-2-(4-Oxy-pyrazin-2-yl)-1a,2,5,5a-tetrahydro-1H-2,3-diaza-cyclopropa[a]pentalene-4-carboxylic acid (1-trifluoromethyl-cyclobutyl)-amide], which EC50 [1] is on record?
Answer: 0.1 nM

Question: And the EC50 [3]?
Answer: 1.16 nM

Question: For `COc1ccc(C(=O)c2c(C)n(CCN3CCOCC3)c3cc(I)ccc23)cc1` [AM630], which “Effect on the reversal of hypersensitivity by AM1241” value [5] is on record?
Answer: inhibited

Question: For `CC(C)(CO)NC(=O)c1nn(-c2ccc(F)cn2)c2c1C[C@H]1C[C@@H]21` [Compound 309, (1aR,5aR)-2-(5-Fluoro-pyridin-2-yl)-1a,2,5,5a-tetrahydro-1H-2,3-diaza-cyclopropa[a]pentalene-4-carboxylic acid (2-hydroxy-1,1-dimethyl-ethyl)-amide], which EC50 [1] is on record?
Answer: 19 nM

Question: And the EC50 [3]?
Answer: 136 nM

Question: With `CC(C)(C)NC(=O)c1nn(-c2cnccn2)c2c1C[C@H]1C[C@@H]21` [Compound 593, (1aR,5aR)-2-Pyrazin-2-yl-1a,2,5,5a-tetrahydro-1H-2,3-diaza-cyclopropa[a]pentalene-4-carboxylic acid tert-butylamide] as the compound, how does the EC50 [1] read?
Answer: 7.15 nM

Question: What about the EC50 [2] of the same compound?
Answer: 1330 nM

Question: What about the EC50 [3] of the same compound?
Answer: 34.6 nM

Question: With `O=C(N[C@H](CO)C1CCOCC1)c1nn(-c2cnccn2)c2c1C[C@H]1C[C@@H]21` [Compound 684, (1aR,5aR)-2-Pyrazin-2-yl-1a,2,5,5a-tetrahydro-1H-2,3-diaza-cyclopropa[a]pentalene-4-carboxylic acid ((S)-2-hydroxy-1-tetrahydro-pyran-4-yl-ethyl)-amide] as the compound, how does the EC50 [1] read?
Answer: 7.08 nM

Question: What about the EC50 [3] of the same compound?
Answer: 59 nM

Question: For `COC(=O)[C@@H](NC(=O)c1nn(-c2c[n+]([O-])ccn2)c2c1C[C@H]1C[C@@H]21)C(C)(C)C` [Compound 746, (S)-3,3-Dimethyl-2-{[(1aR,5aR)-2-(4-oxy-pyrazin-2-yl)-1a,2,5,5a-tetrahydro-1H-2,3-diaza-cyclopropa[a]pentalene-4-carbonyl]-amino}-butyric acid methyl ester], which EC50 [2] is on record?
Answer: 142 nM

Question: What about the EC50 [3] of the same compound?
Answer: 0.7 nM

Question: What does the source list for `O=C(NC1(CO)CCC1)c1nn(-c2c[n+]([O-])ccn2)c2c1C[C@H]1C[C@@H]21` [Compound 698, (1aR,5aR)-2-(4-Oxy-pyrazin-2-yl)-1a,2,5,5a-tetrahydro-1H-2,3-diaza-cyclopropa[a]pentalene-4-carboxylic acid (1-hydroxymethyl-cyclobutyl)-amide]?
Answer: EC50 [1]: 10.2 nM; EC50 [3]: 27.9 nM

Question: For `O=C(NC1(C(F)(F)F)CCC1)c1nn(-c2cnccn2)c2c1C[C@@H]1C[C@H]21` [Compound 926, (1aS,5aS)-2-Pyrazin-2-yl-1a,2,5,5a-tetrahydro-1H-2,3-diaza-cyclopropa[a]pentalene-4-carboxylic acid (1-trifluoromethyl-cyclobutyl)-amide], which EC50 [1] is on record?
Answer: 0.2 nM

Question: And the EC50 [3]?
Answer: 4.43 nM

Question: For `CC(C)(C)[C@@H](CF)NC(=O)c1nn(-c2c[n+]([O-])ccn2)c2c1C[C@H]1C[C@@H]21` [Compound 918, (1aR,5aR)-2-(4-Oxy-pyrazin-2-yl)-1a,2,5,5a-tetrahydro-1H-2,3-diaza-cyclopropa[a]pentalene-4-carboxylic acid ((S)-1-fluoromethyl-2,2-dimethyl-propyl)-amide], which EC50 [2] is on record?
Answer: 437 nM

Question: And the EC50 [3]?
Answer: 1.01 nM

Question: For `N#Cc1ccnc(-n2nc(C(=O)N[C@H](CO)CC(F)(F)F)c3c2[C@H]2C[C@H]2C3)c1` [Compound 891, (1aS,5aS)-2-(4-Cyano-pyridin-2-yl)-1a,2,5,5a-tetrahydro-1H-2,3-diaza-cyclopropa[a]pentalene-4-carboxylic acid ((S)-3,3,3-trifluoro-1-hydroxymethyl-propyl)-amide], which EC50 [2] is on record?
Answer: 11800 nM

Question: What about the EC50 [3] of the same compound?
Answer: 16.2 nM

Question: Which EC50 [1] does the source give for `CC1(NC(=O)c2nn(-c3c[n+]([O-])ccn3)c3c2C[C@H]2C[C@@H]32)CCC1` [Compound 821, (1aR,5aR)-2-(4-Oxy-pyrazin-2-yl)-1a,2,5,5a-tetrahydro-1H-2,3-diaza-cyclopropa[a]pentalene-4-carboxylic acid (1-methyl-cyclobutyl)-amide] here?
Answer: 0.6 nM

Question: And the EC50 [3]?
Answer: 7.12 nM

Question: Which “Efficacy against acute and chronic pain” value [4] does the source give for `CCCCCc1cc(O)c2c(c1)OC(C)(C)[C@@H]1CCC(C)=C[C@@H]21` [THC] here?
Answer: effective against acute and chronic pain

Question: What does the source list for `CC(C)(C#N)NC(=O)c1nn(-c2cc(Cl)ccn2)c2c1C[C@H]1C[C@@H]21` [Compound 625, (1aR,5aR)-2-(4-Chloro-pyridin-2-yl)-1a,2,5,5a-tetrahydro-1H-2,3-diaza-cyclopropa[a]pentalene-4-carboxylic acid (cyano-dimethyl-methyl)-amide]?
Answer: EC50 [1]: 4.45 nM; EC50 [3]: 11.8 nM

Question: Which EC50 [1] does the source give for `CNC(=O)[C@@H](NC(=O)c1nn(-c2c[n+]([O-])ccn2)c2c1C[C@H]1C[C@@H]21)C(C)(C)C` [Compound 704, (1aR,5aR)-2-(4-Oxy-pyrazin-2-yl)-1a,2,5,5a-tetrahydro-1H-2,3-diaza-cyclopropa[a]pentalene-4-carboxylic acid ((S)-2,2-dimethyl-1-methylcarbamoyl-propyl)-amide] here?
Answer: 0.2 nM

Question: What about the EC50 [2] of the same compound?
Answer: 228 nM

Question: And the EC50 [3]?
Answer: 0.8 nM

Question: For `Cc1c(C(=O)c2cccc3ccccc23)c2cccc3c2n1[C@H](CN1CCOCC1)CO3` [WIN 55212-2], which “Efficacy against acute and chronic pain” value [4] is on record?
Answer: effective against acute and chronic pain

Question: Which results are given for `O=C(N[C@H](CO)C1CCOCC1)c1nn(-c2c[n+]([O-])ccn2)c2c1C[C@H]1C[C@@H]21` [Compound 841, (1aR,5aR)-2-(4-Oxy-pyrazin-2-yl)-1a,2,5,5a-tetrahydro-1H-2,3-diaza-cyclopropa[a]pentalene-4-carboxylic acid [(S)-2-hydroxy-1-(tetrahydro-pyran-4-yl)-ethyl]-amide]?
Answer: EC50 [1]: 1.4 nM; EC50 [2]: 1140 nM; EC50 [3]: 17.5 nM

Question: What does the source list for `CC(C)(C)[C@@H](CO)NC(=O)c1nn(-c2cnccn2)c2c1C[C@H]1C[C@@H]21` [Compound 642, (1aR,5aR)-2-Pyrazin-2-yl-1a,2,5,5a-tetrahydro-1H-2,3-diaza-cyclopropa[a]pentalene-4-carboxylic acid ((S)-1-hydroxymethyl-2,2-dimethyl-propyl)-amide]?
Answer: EC50 [1]: 4.38 nM; EC50 [3]: 26.4 nM
